In patent US20060135587A1, “Method and compounds for promoting healing and reducing inflammation” (priority 2002, published 2006):

Tests used:
myocardial infarction = experiment: Clinical trial in subacute myocardial infarction and cardiac insufficiency (Example 23); assay type: in vivo, human
Procedure: A clinical trial of Compound 2 was carried out on 100 patients aged from 25 to 75 years during the subacute period of myocardial infarction. Each patient continued to receive the treatment which s/he had been given prior to commencement of the trial. Compound 2 was administered in addition to the previous treatment. A control group received conventional treatment, ie. nitrate, anticoagulants and/or hypotensive agents as appropriate. The results of treatment of these two groups were compared with groups of patients receiving riboxine and placebo. Compound 2 was administered over a period of three weeks from the 7th to 28th days following infarction, and was administered orally at a dose of three 0.2 g tablets per day.
The effects of treatment were monitored by 12-lead electrocardiography, using the QRS Scoring System. Haemodynamic parameters and the contractile function of the myocardium were monitored using a Toshiba ultrasound camera model SSH-60A, using conventional methods.
The effect of Compound 2 was also studied in 25 patients aged 43 to 66 years suffering from cardiac insufficiency, in comparison with riboxine or a placebo.

[1] = system: acute Con A-induced inflammation; experiment: Acute Con A-induced inflammation (paw oedema) in mice; assay type: in vivo
[2] = system: regeneration of liver after partial hepatectomy; experiment: Liver regeneration after partial hepatectomy in rats; assay type: in vivo; conditions: for Level of recovery: 7 days, hepatectomy alone = 100
Procedure: Partial hepatectomy was performed using the conventional method (Higgins and Anderson, 1931) by removing the left lateral and central lobes of the liver from 80 male white rats, weighing 180-200 g.
Compound 2, Compound 4, Compound 5 or Compound 6 was administered to the experimental groups intraperitoneally in equimolar doses of 0.1 mM/kg and 0.2 mM/kg. These optimal doses were determined in preliminary experiments. The control group received intraperitoneal injections of saline solution. The compounds were administered on the day after the operation and then one injection was given daily over the course of 7 days, since maximum growth of the liver mass in rats is observed in the first 7 days after partial hepatectomy (Solopaev, 1980).
The effectiveness of the compounds was compared to that of a combination of non-steroid anabolic regeneration stimulators which are used in the treatment of liver pathology, namely Riboxin and potassium orotate at a dose of 0.2 mM/kg each (Rychnev and Frolov, 1984).
For quantitative evaluation of the regeneration process in the liver the coefficient of regeneration completion as determined by the formula below was used: [formula] where
Stimulation of the regeneration of tissue after hepatectomy in response to different medicinal preparations is associated with an increase in the synthesis of nucleic acids, as indicated by the increase in the content of RNA and DNA in the regenerated tissue. Quantitative analysis of DNA and RNA was performed by centrifugation. […] The enzymic component of anti-oxidant protection was also assessed on the basis of the activity of catalase and superoxidedismutase (SOD).
5 ml of […] of HCIO4 solution were added to the sample (100 mg). In order to ensure complete sedimentation of the acid-insoluble fraction, the beakers were put in ice for 15 minutes. Then they were centrifuged for 10 minutes at 5000 revolutions per minute. The sediment was washed twice with 0.2 M HCIO4. After the final centrifugation, the walls of the beaker were carefully dried with gauze and filter paper. The sediment was ground down with a glass pestle, suspended in 1 ml of water and then 1 ml of 0.6 M KON solution was added at room temperature. Hydrolysis was performed over the course of 1 hour at 37° C., then the beakers were put in ice to stop the hydrolysis process. 4 ml of the 0.6 M solution were added to each beaker and the beakers were left in ice for another 15 minutes, then centrifuged for 15 minutes at 5000 revolutions per minute. The supernatant was used to determine the RNA by UV absorption at 260 nm and 290 nm compared to the control sample containing 0.4M of HCIO4). The amount of RNA in μg per 1 ml of the supernatant was calculated using the following formula: [formula] where C=is the RNA concentration (μg/ml)
DNA analysis was carried out on the sediment remaining after the alkaline hydrolysis used to determine RNA. 0.5 M of HCIO4 (5 ml per sample) was poured into the dried beaker containing the sediment. Hydrolysis was performed in a boiling water bath for 20 minutes. The amount of DNA in μg per 1 ml of the hydrolysate was calculated using the following formula: [formula] where C=is the DNA concentration (μg/ml). Catalase Activity
Catalase activity was determined using the permanganate method. The optimal amount of the substrate (3 ml of 1% H2O2) and 1 ml of the enzyme were added to 10 ml of phosphate buffer, pH 7.8. After 10 minutes the reaction was stopped by adding 1.5 ml of H2SO4 (50%). The remaining hydrogen peroxide was filtered with 0.1M of KMnO4 solution. Catalase activity was calculated on the basis that 1 ml of 0.1M of KMnO4 solution corresponds to […] of H2O2.
SOD activity was determined using the dianisidine method, which is based on the fact that under ultraviolet irradiation Riboflavin (Rb) is converted to an excited (ionised) state and therefore becomes able to attack reduced dianisidine (DH2). […]

[3] = system: liver after partial hepatectomy; experiment: Morphological study of the liver after partial hepatectomy; assay type: in vivo, rats; conditions: one week after hepatectomy
Procedure: Morphological methods are highly informative in the assessment of repair processes. Histological tests of the liver after partial hepatectomy were performed using generally accepted methods. Microscopic sections were stained with hematoxylin and eosin using Van Gieson's methodology. Liver tests after partial hepatectomy were performed on 8 groups of animals, totalling 37 rats. All animals were examined one week after hepatectomy.

[4] = Table 4, 0.005M dose (Compound 2 19 mg/kg, Compound 7 16.4 mg/kg) + Con A
[5] = Table 4, 0.01M dose (Compound 2 38 mg/kg, Compound 7 32 mg/kg) + Con A
[6] = Table 4, 0.015M dose (Compound 2 57 mg/kg, Compound 7 49 mg/kg) + Con A
[7] = Table 4, 0.02M dose (Compound 2 76 mg/kg, Compound 7 65.6 mg/kg) + Con A

CC[n+]1cn(C)c(C(=O)NC)c1C(=O)NC.O=S(=O)([O-])c1ccccc1 [Compound 2, 1-methyl-3-ethyl-4,5-bis(N-methylcarbamoyl)-imidazolium benzenesulfonate] was tested, and the side effects (myocardial infarction; both patient groups) was “No side effects were observed in either group”, the “recovery of the contractile function of the myocardium versus placebo or riboxine” value (myocardial infarction; myocardial infarction patients, three 0.2 g tablets per day orally, 7th to 28th day) was “recovery of the contractile function of the myocardium was more rapid” and the “progression of cardiac insufficiency” value (myocardial infarction; patients suffering from cardiac insufficiency) was “prevented the progression of the condition”. The “Reaction index (%)” value ([1]; Table 3, 10 mg/kg intra-peritoneally one hour before Con A, male CBA mice) was 10.4 ± 2.0 %, the “Reaction index (%)” value ([1]; Table 3, 50 mg/kg intra-peritoneally one hour before Con A, male CBA mice) was 8.4 ± 0.9 % and the “Paw oedema reduction (%)” value [1, 4] was 66%. For the same compound, the “Reaction index (%)” value [1, 4] was 5.4 ± 2.0%, the “Paw oedema reduction (%)” value [1, 5] was 52% and the “Reaction index (%)” value [1, 5] was 7.7 ± 1.8%. For the same compound, the “Paw oedema reduction (%)” value ([1]; Table 4, 10 mg/kg + Con A) was 33%, the “Reaction index (%)” value ([1]; Table 4, 10 mg/kg + Con A) was 11.1 ± 3.5% and the “Paw oedema reduction (%)” value [1, 6] was 66%. The “Reaction index (%)” value [1, 6] was 5.3 ± 2.0%, the “Paw oedema reduction (%)” value [1, 7] was 77% and the “Reaction index (%)” value [1, 7] was 3.3 ± 2.0%. For the same compound, the “ED50, dose reducing paw oedema by 50% one hour after injection of Concanavalin A” value ([1]; male mice) was 33 mg/kg, the “Catalase E activity” value ([2]; 0.1 mM/kg) was 18.0 ± 3.1 μgM/min/g tissue × 1000 and the “DNA content (in mg/g of tissue)” value ([2]; 0.1 mM/kg) was 4.2 ± 0.37 mg/g of tissue. For the same compound, the Protein content ([2]; 0.1 mM/kg) was 86.4 ± 9.8 Mg/g tissue, the “RNA content (mg/g of tissue)” value ([2]; 0.1 mM/kg) was 7.07 ± 0.18 mg/g of tissue and the SOD activity ([2]; 0.1 mM/kg) was 78.9 ± 5.8 Units/g tissue. For the same compound, the Level of recovery ([2]; 0.1 mM/kg intraperitoneally) was 150.5, the “DNA content higher than in animals undergoing hepatectomy alone” value ([2]; 0.1 mM/kg or 0.2 MM/kg) was 15% and the “Catalase E activity” value ([2]; 0.2 mM/kg) was 20.0 ± 1.92 μgM/min/g tissue × 1000. The “DNA content (in mg/g of tissue)” value ([2]; 0.2 mM/kg) was 4.1 ± 0.13 mg/g of tissue, the Protein content ([2]; 0.2 mM/kg) was 94.8 ± 8.4 Mg/g tissue and the “RNA content (mg/g of tissue)” value ([2]; 0.2 mM/kg) was 6.96 ± 0.39 mg/g of tissue. The SOD activity ([2]; 0.2 mM/kg) was 98.0 ± 4.6 Units/g tissue, the Level of recovery ([2]; 0.2 mM/kg intraperitoneally) was 134.9 and the “increase of the organ regeneration completeness ratio” value ([2]; 0.1 and 0.2 mM/kg) was 34.9-50.5%. The “histological findings in the liver” value ([3]; 0.1 MM/kg) was “showed no undesirable effects” and the “histological findings in the liver” value ([3]; 0.2 MM/kg) was “some of the animals demonstrated hepatocyte hypertrophy combined with subacute hepatitis”.
